Assays:
Settings in all cases: 72 h
HepG2 [1] = test: cell viability relative to DMSO; higher = less toxic
Calu-3 [2] = test: as above
Caco-2 [3] = test: as above
U2OS [4] = test: as above
Vero E6 [5] = test: as above
HepG2 [6] = test: relative viability EC50 (midpoint between 100% and the lowest measured viability); higher = less toxic
Calu-3 [7] = test: as above
Caco-2 [8] = test: as above
U2OS [9] = test: as above
Vero E6 [10] = test: as above
HepG2 [11] = test: drug sensitivity score (DSS) for viability; higher = more toxic; extreme values may be limits of the assay
Calu-3 [12] = test: as above
Caco-2 [13] = test: as above
U2OS [14] = test: as above
Vero E6 [15] = test: as above

Structure (SMILES) | cell viability (HepG2 [1]; 1 nM) | cell viability (HepG2 [1]; 10 nM) | cell viability (HepG2 [1]; 100 nM) | cell viability (HepG2 [1]; 1000 nM) | cell viability (HepG2 [1]; 10000 nM) | cell viability (Calu-3 [2]; 1 nM) | cell viability (Calu-3 [2]; 10 nM) | cell viability (Calu-3 [2]; 100 nM) | cell viability (Calu-3 [2]; 1000 nM) | cell viability (Calu-3 [2]; 10000 nM) | cell viability (Caco-2 [3]; 1 nM) | cell viability (Caco-2 [3]; 10 nM) | cell viability (Caco-2 [3]; 100 nM) | cell viability (Caco-2 [3]; 1000 nM) | cell viability (Caco-2 [3]; 10000 nM) | cell viability (U2OS [4]; 1 nM) | cell viability (U2OS [4]; 10 nM) | cell viability (U2OS [4]; 100 nM) | cell viability (U2OS [4]; 1000 nM) | cell viability (U2OS [4]; 10000 nM) | cell viability (Vero E6 [5]; 1 nM) | cell viability (Vero E6 [5]; 10 nM) | cell viability (Vero E6 [5]; 100 nM) | cell viability (Vero E6 [5]; 1000 nM) | cell viability (Vero E6 [5]; 10000 nM) | relative viability EC50 (HepG2 [6]) | relative viability EC50 (Calu-3 [7]) | relative viability EC50 (Caco-2 [8]) | relative viability EC50 (U2OS [9]) | relative viability EC50 (Vero E6 [10]) | drug sensitivity score (HepG2 [11]) | drug sensitivity score (Calu-3 [12]) | drug sensitivity score (Caco-2 [13]) | drug sensitivity score (U2OS [14]) | drug sensitivity score (Vero E6 [15])
NC(=O)C[C@H](N)C(=O)O [L-asparagine] | 92.7% | 116% | 92.3% | 105% | 93.7% | 95.2% | 95.6% | 93.1% | 96.1% | 98% | 103% | 104% | 92.1% | 106% | 105% | 96.5% | 95.4% | 98.6% | 98.7% | 102% | 102% | 112% | 99.2% | 101% | 86.8% | > 10 µM | > 10 µM | > 10 µM | > 10 µM | > 10 µM | 0 | 0 | 0 | 0 | 0.1
C[N+](C)(C)[C@@H](Cc1c[nH]c(=S)[nH]1)C(=O)O [L-ergothioneine] | 83.4% | 88.9% | 102% | 98.8% | 80.4% | 97.2% | 97.7% | 95.2% | 108% | 95.4% | 100% | 101% | 114% | 105% | 97.3% | 96% | 94.1% | 98.2% | 92.4% | 95.6% | 94.3% | 94.9% | 96.5% | 109% | 106% | > 10 µM | > 10 µM | > 10 µM | > 10 µM | > 10 µM | 0.7 | 0 | 0 | 0 | 0
N[C@@H](Cn1oc(=O)[nH]c1=O)C(=O)O [L-quisqualic-acid] | 89.7% | 99.1% | 91% | 89.8% | 107% | 87.9% | 96.2% | 100% | 93.1% | 94.9% | 99.1% | 94% | 91.9% | 97% | 97.5% | 99.2% | 104% | 101% | 101% | 95.7% | 101% | 100% | 98.7% | 96.8% | 102% | > 10 µM | > 10 µM | > 10 µM | > 10 µM | > 10 µM | 0 | 0 | 0 | 0 | 0
